In US20250120958A1, “Treatment of GM2 Gangliosidosis” (Azafaros B.V., priority 2022, published 2025):

Tested on: GFAP (Glial fibrillary acidic protein)
Assay: GFAP immunofluorescence in brain sections
Format: in vivo, mouse
Conditions: for GFAP staining, treated vs vehicle: midsections
Description: Brain samples were collected, rinsed with saline and blotted dry. Samples were fixed in 4% PFA for immunohistochemical analyses; frozen and kept for gene expression and molecular biology analyses; and used frozen for LC-MS/MS analysis.
GFAP (Glial fibrillary acidic protein) a class-III intermediate filament protein, is a cell-specific marker that, during the development of the central nervous system, distinguishes astrocytes from other glial cells. Intermediate filaments form networks that provide support and strength to cells. Several molecules of glial fibrillary acidic protein bind together to form the type of intermediate filament found in astroglial cells. Astroglial cells support and nourish cells in the brain and spinal cord. If brain or spinal cord cells are injured through trauma or disease, astroglial cells react by rapidly producing more glial fibrillary acidic protein.

Question: With `OC[C@H]1[C@@H](O)[C@H](O)[C@@H](O)CN1CCCCCOCc1ccc(-c2ccccc2)c(F)c1` [AZ-3102] as the compound, how does the “GFAP immunofluorescence, Mean” value (caudal section of the brain, Het (Hexb+/−), Female) read?
Answer: 508.99

Question: What about the “GFAP immunofluorescence, Mean” value (caudal section of the brain, Het (Hexb+/−), Male) of the same compound?
Answer: 425.10

Question: What about the “GFAP immunofluorescence, Mean” value (caudal section of the brain, KO (Hexb−/−), Female) of the same compound?
Answer: 1656.84

Question: And the “GFAP immunofluorescence, Mean” value (caudal section of the brain, KO (Hexb−/−), Male)?
Answer: 1762.82

Question: And the “GFAP immunofluorescence, Mean” value (midsection of the brain, Het (Hexb+/−), Female)?
Answer: 298.81

Question: What about the “GFAP immunofluorescence, Mean” value (midsection of the brain, Het (Hexb+/−), Male) of the same compound?
Answer: 395.99

Question: What about the “GFAP immunofluorescence, Mean” value (midsection of the brain, KO (Hexb−/−), Female) of the same compound?
Answer: 747.75

Question: And the “GFAP immunofluorescence, Mean” value (midsection of the brain, KO (Hexb−/−), Male)?
Answer: 866.38

Question: And the “GFAP staining, treated vs vehicle” value (Hexb−/− females)?
Answer: statistical decrease

Question: And the “GFAP staining, treated vs vehicle” value (Hexb−/− males)?
Answer: trend to having a decrease
